Patent publication US5866597A, “Use of triazine compounds for the treatment of memory and learning disorders” (Glaxo Wellcome Inc., priority 1993, dated 1999)
Read-outs that look alike come from different tables or passages of the source.

Key:
[1] = isethionate salt, cited from earlier work
[2] = tested on: scopolamine-induced deficit in rats; test: Light-dark box memory test in rats, scopolamine-induced deficit, single dose pre-training (Tables 3 and 4); format: in vivo, Male Wistar rats; conditions: for Mean latency Day 1 / Mean latency Day 2: ± SEM; for Effect on expected decrease in latency on retest: scopolamine 0.1 mg/kg
Protocol: (§1) Male Wistar rats obtained from Charles River were used. They were housed under controlled conditions (temperature 21±2 deg. C., humidity approx. 50%, 12 hour light/dark cycle, food and water ad lib) for one week before use. On the day before test the rats were permanently housed in groups of six. Food and water were supplied ad lib. On the test day, animals were weighed and then dosed either 30 minutes before test (midazolam), one hour before test (compound A) or immediately after test.
(§2) All drugs were dissolved or suspended in 0.25% (w/v) aqueous celacol, and administered orally (by gavage), i.p. or s.c. The dose volume was 5 ml/kg for all routes.
(§3) An identical apparatus to that described in Example 1 was used, except that the smaller box measured 370 mm×260 mm×190 mm.
(§4) This consisted of training as described for mice under section (d) of Example 1.
(§5) Test drugs or control fluids were given before or immediately after the training session.
(§6) This was as described under section (e) of Example 1.

[3] = tested on: scopolamine-induced deficit in mice; test: Modified light-dark box memory test in mice, scopolamine-induced deficit, drug given pre-training (Table 1); format: in vivo, Male albino CD-1 mice; conditions: for Mean latency Day 1 / Mean latency Day 2: ± SEM
Protocol: (§7) Male albino CD-1 mice obtained from Charles River were used. They were housed under controlled conditions (temperature 21±2 deg. C., humidity approx. 50%, 12 hour light/dark cycle, food and water ad lib) for one week before use. On the day before test, the mice were housed in groups of six in polythene boxes in the laboratory and marked for identification. Food and water were supplied ad lib. On the test day, animals were weighed and then dosed either 30 minutes before test (piracetam, ondansetron) one hour before test (compound A) or immediately after test.
All drugs were dissolved or suspended in 0.25% (w/v) aqueous celacol, and administered orally (by gavage), i.p. or s.c. The dose volume was 10 ml/kg for all routes.
(§8) The apparatus consisted of two boxes with an opening 90 mm×60 mm at floor level between them. A plastic door was used to close the opening when required. The smaller box (290 mm×120 mm×120 mm high) was made of opaque plastics, open at the top to allow illumination by normal laboratory lighting. The larger box (305 mm square×280 mm high) was enclosed apart from the single opening.
(§9) This consisted of training, with retest 24 hours later. During training, animals were placed individually in the open box facing away from the end with the opening. After a period of exploration, they usually entered the dark box and the latency to entry in seconds was noted. The door to the dark box was closed, and after 30 seconds had elapsed, the animal was removed gently and returned to the holding box. Twenty-four hours later, an identical procedure was used, except that the session ended as soon as the animal had entered the dark box. The latency was again noted. During the interval, the animals were not handled, and were disturbed as little as possible. Each animal was used once only.
as §5
Group comparisons were made between latencies to enter the dark compartment on the first and second occasions. For both training and retest occasions, comparisons were made between vehicle and treatment groups. […] The difference between latencies on the two occasions is presented as % decrease on Day 2 compared with Day 1.
(§10) The mean latency to enter the dark box±standard error of the mean was calculated from a group of 12 animals. For a given treatment, figures in the columns labelled `Day 1` and `Day 2` show the mean latencies taken from the same group of animals. The difference between data obtained on the two days is illustrated by showing the % decrease, and the data compared using the Mann-Whitney U-test; NS indicates a p value>0.1.

[4] = tested on: scopolamine effect; conditions: cited from earlier work; for Reversal of the scopolamine effect: screen for nootropic compounds
[5] = tested on: scopolamine-induced deficit in mice; test: Modified light-dark box memory test in mice, scopolamine-induced deficit, drug given immediately post-training (Table 2); format: in vivo, Male albino CD-1 mice; conditions: for Mean latency Day 1 / Mean latency Day 2: ± SEM
Protocol: as §7
[…] The dose volume was 10 ml/kg for all routes.
as §8, §9, §5
Group comparisons were made between latencies to enter the dark compartment on the first and second occasions. For both training and retest occasions, comparisons were made between vehicle and treatment groups. The distribution of latencies was skewed on both learning and retest trials (data not shown), so the non-parametric Mann-Whitney U-test was used. The difference between latencies on the two occasions is presented as % decrease on Day 2 compared with Day 1.
as §10

[6] = tested on: scopolamine-induced deficit in rats; test: Light-dark box memory test in rats, sub-acute dosing: pre-training, pre-training and pre-retest, or four pre-treatments and before training and retest (Table 5); format: in vivo, Male Wistar rats
Protocol: as §1
In the sub-acute dosing regimen (see `Procedure`) the rats, housed as above, received six doses of drug or vehicle by the oral route, each 24 hours apart.
as §2, §3, §4
The procedure was identical with that described above, except that seven groups of rats received compound A or control pre-treatment as 6 oral doses each 24 hours apart, as follows.
Training took place 1 hour after the fifth dose i.e. on day 5. […] The usual retest was performed 24 hours later (on day 6), one hour after the sixth oral treatment.
as §6
The mean latency to enter the dark box±standard error of the mean was calculated from a group of 24 animals (controls in first block) or 12 animals (all other treatments). For a given treatment, figures in the columns labelled `Day 5` and `Day 6` show the mean latencies taken from the same group of animals. The difference between data obtained on the two days is illustrated by showing the % decrease, and the data compared using the Mann-Whitney U-test.

[7] = tested on: scopolamine-induced pupillary dilatation in rats; test: Pupil diameter measurement in rats (Table 6); format: in vivo, Male Wistar rats
Protocol: (§11) 15 minutes before observation. Under these conditions, which were identical to those used in the learning experiments described in Example 2, changes in salivation and pupil diameter were measured. Salivation was measured by placing a piece of folded filter paper in the rat's mouth and measuring the diameter of the blot in mm after 1 minute. Pupil diameter was measured using a magnifying glass and graticule under normal lighting conditions. For both measures, comparisons were made between control and drug-treated groups using a Student's T-test on independent samples.
(§12) Groups of 6 animals were used.

[8] = tested on: scopolamine-induced dry mouth in rats; test: Salivation measurement in rats (Table 6); format: in vivo, Male Wistar rats; conditions: scopolamine, vehicle-pretreated rats; p<0.01
Protocol: as §11, §12

[9] = saline s.c. + midazolam 0.5 mg/kg i.p.
[10] = scopolamine 0.1 mg/kg s.c. + midazolam 0.5 mg/kg i.p.
[11] = scopolamine 1 mg/kg s.c. + ondansetron 0.01 ug/kg i.p.
[12] = scopolamine 1 mg/kg s.c. + ondansetron 1.0 ug/kg i.p.
[13] = scopolamine 1 mg/kg s.c. + ondansetron 100 ug/kg i.p.
[14] = saline s.c. + piracetam 2000 mg/kg i.p.
[15] = scopolamine 1 mg/kg s.c. + piracetam 2000 mg/kg i.p.
[16] = saline s.c. + piracetam 2000 mg/kg i.p. post-training
[17] = scopolamine 1 mg/kg s.c. + piracetam 2000 mg/kg i.p. post-training
[18] = scopolamine 1 mg/kg s.c. + celacol
[19] = scopolamine 1 mg/kg s.c. + saline (piracetam experiment)
[20] = scopolamine 1 mg/kg s.c. + saline
[21] = scopolamine 0.1 mg/kg s.c. + celacol (Table 3)
[22] = scopolamine 0.1 mg/kg s.c. + saline (Table 4)
[23] = scopolamine 0.1 mg/kg s.c. + celacol days 1-6, ± SEM

In the case of Nc1nnc(-c2cccc(Cl)c2Cl)c(N)n1 [3,5-diamino-6-(2,3-dichlorophenyl)-1,2,4-triazine isethionate], the Solubility [1] is listed as “good solubility” and the Solubility ([1]; listed as The salt with isethionic acid) is listed as “particularly good solubility”.
In the case of Cc1ncc2n1-c1ccc(Cl)cc1C(c1ccccc1F)=NC2 [Midazolam], the “Reversal of scopolamine-induced deficit” value ([2]; midazolam 0.5 mg/kg i.p.) is reported as “did not reverse the scopolamine-induced deficit”, the “Difference between days, % Decrease” value ([2]; saline s.c. + midazolam 0.5 mg/kg i.p., p (0.09)) is reported as 29% and the “Mean latency Day 1” value [2, 9] is reported as 39.9 ± 4.9 s. For the same compound, the “Mean latency Day 2” value [2, 9] was 28.2 ± 2.7 s, the “Difference between days, % Decrease” value ([2]; scopolamine 0.1 mg/kg s.c. + midazolam 0.5 mg/kg i.p., p NS) was 9% and the “Mean latency Day 1” value [2, 10] was 37.0 ± 4.0 s. The “Mean latency Day 2” value [2, 10] was 33.6 ± 3.4 s.
In the case of Cc1nccn1CC1CCc2c(c3ccccc3n2C)C1=O (stereo not shown) [Ondansetron, 1,2,3,9-tetrahydro-9-methyl-3-[(2-methyl-1H-imidazol-1-yl)methyl]-4H-carbazol-4-one], the “Difference between days, % Decrease” value ([3]; scopolamine 1 mg/kg s.c. + ondansetron 0.01 ug/kg i.p., p NS) is reported as -28%, the “Mean latency Day 1” value [3, 11] is reported as 15.6 ± 1.8 s and the “Mean latency Day 2” value [3, 11] is reported as 20.0 ± 1.9 s. For the same compound, the “Difference between days, % Decrease” value ([3]; scopolamine 1 mg/kg s.c. + ondansetron 1.0 ug/kg i.p., p NS) was -5%, the “Mean latency Day 1” value [3, 12] was 14.3 ± 1.4 s and the “Mean latency Day 2” value [3, 12] was 14.9 ± 1.2 s. For the same compound, the “Difference between days, % Decrease” value ([3]; scopolamine 1 mg/kg s.c. + ondansetron 100 ug/kg i.p., p <0.05) was 28%, the “Mean latency Day 1” value [3, 13] was 16.3 ± 1.9 s and the “Mean latency Day 2” value [3, 13] was 11.8 ± 1.5 s. The “Reversal of the scopolamine effect” value [4] was “positive results”.
With NC(=O)CN1CCCC1=O [Piracetam] the “Day 2 latency versus scopolamine-treated control animals” value ([3]; piracetam 2000 mg/kg i.p. + scopolamine, pre-training, p<0.05) was “significantly different”, the “Difference between days, % Decrease” value ([3]; saline s.c. + piracetam 2000 mg/kg i.p., p <0.01) was 44% and the “Mean latency Day 1” value [3, 14] was 21.4 ± 4.7 s. For the same compound, the “Mean latency Day 2” value [3, 14] was 12.1 ± 1.2 s, the “Difference between days, % Decrease” value ([3]; scopolamine 1 mg/kg s.c. + piracetam 2000 mg/kg i.p., p NS*) was 27% and the “Mean latency Day 1” value [3, 15] was 19.1 ± 2.4 s. For the same compound, the “Mean latency Day 2” value [3, 15] was 13.9 ± 1.8 s, the “Difference between days, % Decrease” value ([5]; saline s.c. + piracetam 2000 mg/kg i.p. post-training, p <0.05) was 28% and the “Mean latency Day 1” value [5, 16] was 18.8 ± 2.0 s. For the same compound, the “Mean latency Day 2” value [5, 16] was 13.5 ± 1.7 s, the “Difference between days, % Decrease” value ([5]; scopolamine 1 mg/kg s.c. + piracetam 2000 mg/kg i.p. post-training, p NS*) was 6% and the “Mean latency Day 1” value [5, 17] was 19.2 ± 1.8 s. For the same compound, the “Mean latency Day 2” value [5, 17] was 18.0 ± 1.8 s and the “Reversal of the scopolamine effect” value [4] was “positive results”.
In the case of CN1[C@@H]2C[C@@H](OC(=O)[C@H](CO)c3ccccc3)C[C@H]1[C@@H]1O[C@@H]12 [Scopolamine], the “Difference between days, % Decrease” value ([3]; scopolamine 1 mg/kg s.c. + celacol, p NS) is reported as -10%, the “Mean latency Day 1” value [3, 18] is reported as 18.8 ± 1.8 s and the “Mean latency Day 2” value [3, 18] is reported as 20.7 ± 2.3 s. The “Difference between days, % Decrease” value ([3]; scopolamine 1 mg/kg s.c. + saline (ondansetron experiment), p NS) was -2%, the “Mean latency Day 1” value ([3]; scopolamine 1 mg/kg s.c. + saline (ondansetron experiment)) was 16.5 ± 1.3 s and the “Difference between days, % Decrease” value ([3]; scopolamine 1 mg/kg s.c. + saline (piracetam experiment), p NS) was -27%. For the same compound, the “Mean latency Day 1” value [3, 19] was 18.9 ± 1.4 s, the “Mean latency Day 2” value [3, 19] was 24.0 ± 2.5 s and the “Effect on expected decrease in latency on retest” value ([3]; scopolamine 1 mg/kg, vehicle-treated mice) was “abolished this effect”. The “Difference between days, % Decrease” value ([5]; scopolamine 1 mg/kg s.c. + saline, p (0.07, up)) was -36%, the “Mean latency Day 1” value [5, 20] was 19.5 ± 2.3 s and the “Mean latency Day 2” value [5, 20] was 26.5 ± 2.7 s. For the same compound, the “Difference between days, % Decrease” value ([2]; scopolamine 0.1 mg/kg s.c. + celacol (Table 3), p NS) was 0%, the “Mean latency Day 1” value [2, 21] was 44.4 ± 4.3 s and the “Mean latency Day 2” value [2, 21] was 44.5 ± 3.7 s. The “Difference between days, % Decrease” value ([2]; scopolamine 0.1 mg/kg s.c. + saline (Table 4), p NS) was -16%, the “Mean latency Day 1” value [2, 22] was 34.4 ± 5.2 s and the “Mean latency Day 2” value [2, 22] was 39.8 ± 4.5 s. For the same compound, the “Effect on expected decrease in latency on retest” value ([2]; vehicle-treated rats (Table 3)) was “reversed this effect”, the “Effect on expected decrease in latency on retest” value ([2]; vehicle-treated rats (Table 4)) was “prevented this effect” and the “Diff. between days, %” value ([6]; scopolamine 0.1 mg/kg s.c. + celacol days 1-6, p NS) was -3%. The “Mean latency Day 5” value [6, 23] was 33.5 ± 2.2 s, the “Mean latency Day 6” value [6, 23] was 34.4 ± 2.5 s and the “Effect on expected decrease in mean latency” value ([6]; scopolamine 0.1 mg/kg, vehicle-treated rats) was “reversed by scopolamine”. For the same compound, the Mean pupil diameter ([7]; celacol p.o. + scopolamine 0.1 mg/kg s.c., ± SEM) was 22.8 ± 1.65 mm × 10, the “Effect on pupil diameter” value ([7]; scopolamine, vehicle-pretreated rats, p<0.01) was “significantly increased pupil diameter” and the Effect on salivation [8] was “reduced salivation”. For the same compound, the Effect on memory ([4]; given before or immediately after a learning trial) was “can abolish the memory”.
